The text below walks through data of patent US20230002355A1 (NANJING SANHOME PHARMACEUTICAL CO., LTD., priority 2019, published 2023).

A short description of data set [1]: Pharmacokinetic experiment in mice. The class given is in vivo. The following applies: mouse, plasma, male BALB/c mice; for bioavailability: I.G. 10 mg/kg vs IV 1 mg/kg, read-out: bioavailability F; for AUC(0-inf) / AUC(0-t) / Cmax / half-life: I.G., 10 mg/kg. The procedure:
Compounds: The compounds of the present disclosure prepared in the above examples were tested. The drug vehicle was Captisol/50 mM sodium acetate with pH 4.6 (10%/90%, w/v %). Oral drugs were formulated into a 0.5 mg/mL clear solution. Intravenous drug were formulated into a 0.1 mg/mL clear solution.
Animals: Male BALB/c mice, SPF grade, were purchased from Shanghai SIPPR-Bk Lab Animal Co., Ltd, with a weight of 18-20 g, and adapted for 2-3 days before experiments.
Instrument: API4500-type Triple Quadrupole LC/MS System, from AB, United States, equipped with electrospray ion source (ESI) and dual pumps LC-30AD; SIL-30AC autosampler; CTO-30AC column oven; DGU-20A3R degasser; AnalystQSA01.01 chromatography workstation; Milli-Q ultrapure water device (Millipore Inc); QilinbeierVortex-5 shaker; HITACHI CF16RX II desktop high-speed freezing centrifuge.
(1) There were 3 mice per group. The compounds of the examples of the present disclosure were given by intragastric administration (I.G.) at 10 mg/kg, or the compounds of the examples of the present disclosure were given by intravenous (IV) administration at 1 mg/kg.
(2) At 5 min, 15 min, 30 min, 1 h, 2 h, 6 h, 10 h, and 24 h after the intragastric administration or intravenous administration, blood was collected from the orbital venous plexus in heparinized EP tubes (0.6 ML), and centrifuged at 8000 rpm/min for 5 min. The upper plasma was taken, frozen at −20° C. and analyzed by LC-MS/MS.
(3) Plasma drug concentration-time curves were plotted according to blood drug concentration data obtained from the above-mentioned step. Pharmacokinetic parameters were calculated by using WinNonlin software.

The next data set has as its system NCI-H358 cells. Put plainly: Cell proliferation inhibition test (CCK-8). The class given is cell-based. The following applies: NCI-H358 human non-small cell lung cancer cells, 168 h, read-out: NIH358 cell proliferation inhibition IC50. The procedure: Test compounds: The compounds prepared in examples and comparative example of the present disclosure was tested. Each compound was formulated with DMSO into 20 mM. The concentrations of the compounds acting on NCI-H358 cells were 100 μM, 25 μM, 6.25 μM, 1.56 μM, 0.391 μM, 0.098 μM, 0.024 μM, 0.006 μM, 0.0015 μM, and 0.00038 μM successively.
Human non-small cell lung cancer cells NCI-H358 were purchased from the American Type Culture Collection (ATCC).
Reagents: The CCK-8 proliferation inhibition detection kit was purchased from Jiangsu KeyGEN BioTECH Co., Ltd. The CKX41 inverted microscope was purchased from Olympus, Japan. The multi-mode microplate reader was purchased from Molecular Devices, USA. The cell culture incubator was purchased from Thermo, USA.
Cell recovery: A NCI-H358 cell cryogenic vial was taken out from a liquid nitrogen tank, placed in water bath at 37° C., and shaked gently to allow it to thaw. The thawed cryogenic vial was disinfected with alcohol cotton, and opened to aspirate the cell fluid into a centrifuge tube. To the centrifuge tube, 1 mL of serum-containing complete medium was added and well-mixed. The centrifuge tube was placed into a centrifuge, for centrifugation at 1000 rpm for 5 min. Then the supernatant was discarded, and complete medium was added to completely dissipate and resuspend the cells through repeated pipetting. The cells were seeded in petri dishes at appropriate concentrations and cultured in a CO2 incubator at 37° C., with 5% CO2, 95% humidified air.
Cell passage: After the cells grew to about 80-90% confluence, the original culture medium (1640 culture medium+10% FBS+1% penicillin-streptomycin+1 mM sodium pyruvate) was discarded, and 1 mL of PBS was added to wash away the residual medium and then discarded. 1 mL of trypsin digestion solution was added to digest for 1-2 min. […] The cell suspension was collected by gently pipetting, and centrifuged at 1000 rpm for 5 min. After discarding the supernatant, the cells was resuspended in complete medium, seeded in petri dishes at the required density, and then cultured in a CO2 incubator at 37° C., with 5% CO2, 95% humidified air. Depending on cell growth, the culture medium was changed or passaged every 2-3 days.
After NCI-H358 cell passage, the cells were resuspended in fresh culture medium (1640 culture medium+3% FBS+1% penicillin-streptomycin+1 mM sodium pyruvate), and counted. The cells were seeded into a 96-well culture plate at a density of 1.5×10^4 cells/mL, with each well added 100 μL thereto (ie, 1.5×10^3 cells/well). After 24 h, 100 μL of fresh culture medium containing different drug concentrations (2×) was added to the old culture medium. The final concentrations of the compounds were 100 μM, 25 μM, 6.25 μM, 1.56 μM, 0.391 μM, 0.098 μM, 0.024 μM, 0.006 μM, 0.0015 μM, and 0.00038 μM, with each concentration group set two replicate wells. The cells were […] in the incubator again for 168 h. The culture medium in wells was discarded as thoroughly as possible, and 100 μL of culture medium containing CCK-8 (CCK-8:culture medium=1:10) was added. After a certain time of culture in the incubator, the 96-well plate was taken out of the incubator, and allowed to equilibrate at room temperature for 5 min. The absorbance (OD value) at 450 nm was detected in a multi-mode plate reader, and the cell proliferation inhibition rate was calculated. The calculation formula was Inhibition (%)=100−(ODexperiment well−ODblank well)/(ODsolvent control well−ODblank well)×100. According to different drug concentrations and their corresponding inhibition rates, IC50 curves were plotted using GraghPad 5.0 software, to analyze the data and to obtain final IC50.

Where two headings read alike, the source gives them in different places.

The term bioavailability denotes the share of a dose that reaches the circulation, judged against a reference dose that is usually intravenous. The AUC(0-inf) is the area under the concentration-time curve extrapolated to infinity. Read a low AUC(0-inf) as low exposure. What is called AUC(0-t) is exposure summed from dosing to a finite time, without extrapolation to infinity. The term Cmax denotes the peak of the concentration-time curve. As usually defined, the half-life is how long it takes for the measured level to halve. Low readings indicate rapid decline, high ones slow decline. Consider `Cc1nc(N2CCC3(CC2)Oc2ccccc2[C@H]3N)n2ccnc2c1-c1cccc(Cl)c1Cl` [Example 48, (R)-1′-(8-(2,3-dichlorophenyl)-7-methylimidazo[1,2-c]pyrimidin-5-yl)-3H-spiro[benzofuran-2,4′-piperidine]-3-amine], for which, in data set [1] (po), the bioavailability is 81.2%, the AUC(0-inf) came out at 37000 ng·h/mL, the AUC(0-t) was 24200 ng·h/mL and the peak concentration (Cmax) is 1890 ng/mL. In addition, in data set [1] (po), the half-life was 15.6 h. Besides, the IC50 in the data set on NCI-H358 cells was 12 nM.
`Cn1c(N2CCC3(CC2)Cc2ccccc2[C@H]3N)nc(N)c(Sc2cccnc2C(F)(F)F)c1=O` [Example 1, (S)-6-amino-2-(1-amino-1,3-dihydrospiro[indene-2,4′-piperidin]-1′-yl)-3-methyl-5-((2-(trifluoromethyl)pyridin-3-yl)thio)pyrimidin-4(3H)-one]: in the data set with NCI-H358 cells, the IC50 was found to be 1.6 nM.
As to `Cc1ncccc1Sc1c(N)nc(N2CCC3(CC2)Cc2ccccc2[C@H]3N)n(C)c1=O` [Example 6, (S)-6-amino-2-(1-amino-1,3-dihydrospiro[indene-2,4′-piperidine]-1′-yl)-3-methyl-5-((2-methylpyridin-3-yl)thio)pyrimidin-4(3H)-one], the IC50 in the data set on NCI-H358 cells came out at 2.8 nM.
Consider `Nc1nccc(Sc2cnc(N3CCC4(CC3)Oc3ccccc3[C@H]4N)n3ccnc23)c1Cl` [Example 45], for which, in data set [1] (po), the bioavailability was determined as 78.3%, the area under the curve AUC(0-inf) amounted to 21600 ng·h/mL, the AUC(0-t) worked out at 19400 ng·h/mL and the peak level (Cmax) was 1590 ng/mL. The compound further had a half-life in data set [1] (po) of 7.3 h. Further, the IC50 with NCI-H358 cells amounted to 3.9 nM.
Regarding `Cn1c(N2CCC3(CC2)Cc2ccccc2[C@H]3N)nc(N)c(Sc2cccc(C#N)c2Cl)c1=O` [Example 9, (S)-3-((4-amino-2-(1-amino-1,3-dihydrospiro[indene-2,4′-piperidine]-1′-yl)-1-methyl-6-oxo-1,6-dihydropyrimidin-5-yl)thio)-2-chlorobenzonitrile], the IC50 in the data set with NCI-H358 cells is 1.5 nM.
`Cn1c(N2CCC3(CC2)Cc2ccccc2[C@H]3N)nc(N)c(Sc2ccnc(N)c2Cl)c1=O` [Example 8]: the IC50 in the data set with NCI-H358 cells amounted to 3.3 nM.
As for `COc1cccc(-c2c(C)nc(N3CCC4(CC3)Oc3ccccc3[C@H]4N)n3ccnc23)c1Cl` [Example 49, (R)-1′-(8-(2-chloro-3-methoxyphenyl)-7-methylimidazo[1,2-c]pyrimidin-5-yl)-3H-spiro[benzofuran-2,4′-piperidine]-3-amine], the IC50 in the data set with NCI-H358 cells was determined as 13.3 nM.
For the compound `Nc1nccc(Sc2cnc(N3CCC4(CC3)Cc3ncccc3[C@H]4N)n3ccnc23)c1Cl` [Example 46, (S)-1′-(8-((2-amino-3-chloropyridin-4-yl)thio)imidazo[1,2-c]pyrimidin-5-yl)-5,7-dihydrospiro[cyclopenta[b]pyridine-6,4′-piperidine]-5-amine], the IC50 with NCI-H358 cells is 8.5 nM.
For `Cn1c(N2CCC3(CC2)Cc2ccccc2[C@H]3N)nc(N)c(Sc2ccc(N)nc2Cl)c1=O` [Example 4, (S)-6-amino-2-(1-amino-1,3-dihydrospiro[indene-2,4′-piperidine]-1′-yl)-3-methyl-5-((6-amino-2-chloropyridin-3-yl)thio)pyrimidin-4(3H)-one], the IC50 in the data set with NCI-H358 cells stood at 5.6 nM.
Same read-out and setting: with `Cn1c(N2CCC3(CC2)Oc2ccccc2[C@H]3N)nc2n[nH]c(-c3ccnc(NC4CC4)c3Cl)c2c1=O` [Example 51] the figure was 6 nM; with `Nc1nccc(Sc2cnc(N3CCC4(CC3)Oc3ccccc3[C@H]4N)n3ccnc23)c1F` [Example 47, (R)-1′-(8-(((2-amino-3-fluoropyridin-4-yl)thio)imidazo[1,2-c]pyrimidin-5-yl)-3H-spiro[benzofuran-2,4′-piperidin]]-3-amine], 16.7 nM.
As for `Cn1c(N2CCC3(CC2)Oc2ccccc2[C@H]3N)nc(N)c(Sc2cccnc2C(F)(F)F)c1=O` [Example 53, (R)-6-amino-2-(3-amino-3H-spiro[benzofuran-2,4′-piperidine]-1′-yl)-3-methyl-5-((2-(trifluoromethyl)pyridin-3-yl)thio)pyrimidin-4(3H)-one], in data set [1] (po), the bioavailability stood at 74.3%, the area under the curve AUC(0-inf) came to 7410 ng·h/mL, the AUC(0-t) worked out at 6520 ng·h/mL and the Cmax was 1390 ng/mL. Further, the half-life in data set [1] (po) was 3 h. Moreover, in the data set on NCI-H358 cells, the IC50 amounted to 4.9 nM.
With `Nc1nc(N2CCC3(CC2)Oc2ccccc2[C@H]3N)cnc1Sc1ccnc(N)c1Cl` [Compound A], the bioavailability in data set [1] (oral) amounted to 51.2%. Besides, the IC50 in the data set with NCI-H358 cells worked out at 18.3 nM.
